Here are results for nine molecules from paper PMC9655428, “N-Hydroxy-N-Propargylamide Derivatives of Ferulic Acid: Inhibitors of Cholinesterases and Monoamine Oxidases” (Molecules, 2022).

What is called inhibition is the relative decrease from the control value, in per cent. A higher inhibition goes with a strong effect. One may read the IC50 as the concentration needed to halve the response being measured. Low values mean greater potency, high ones weaker potency. What is called EC50 is the concentration giving half of the maximal effect.

“Also recorded” adds a separate entry of the source.

One data set has as its target T1, hBChE (Homo sapiens, UniProt P06276).
T1 construct: purchased Sigma Aldrich
The experiment in a line: Inhibition of hBChE (Ellman spectrophotometric assay). It is filed as biochemical. The conditions noted are these: ni = no inhibition; for hBChE % @ 10 µM: inhibition at 10 µM. The method, then: (§1) Inhibition assays were performed according to previously published protocols. […] Compound 3 is a hydroxamate in which the piperidine ring is attached to the C4 oxygen via an n-butyl linker, while compound 6 is a corresponding N-propargylhydroxamate.
(§2) Inhibition assays were performed according to previously published protocols. […] Briefly, the classical Ellman spectrophotometric assay (for ChEs) and fluorimetric detection of 4-hydroxyquinoline (for MAOs) were adapted to a plate reading procedure using 96-well microtiter plates (Greiner Bio-Frickenhausen, Frickenhausen, Germany). Readings were performed using the Infinite M1000 Pro plate reader (Tecan, Cernusco s.N., Cernusco sul Naviglio, MI, Italy), and statistical regression was performed using Prism software (GraphPad Prism version 5.00 for Windows, GraphPad Software, San Diego, CA, USA).
Background: Ellman's reagent forms a yellow product with free thiols.

For the next data set, the target named is T2, hMAO-A (Homo sapiens, UniProt P21397).
T2 construct: purchased Sigma Aldrich
T2 sequence (P21397 1-527): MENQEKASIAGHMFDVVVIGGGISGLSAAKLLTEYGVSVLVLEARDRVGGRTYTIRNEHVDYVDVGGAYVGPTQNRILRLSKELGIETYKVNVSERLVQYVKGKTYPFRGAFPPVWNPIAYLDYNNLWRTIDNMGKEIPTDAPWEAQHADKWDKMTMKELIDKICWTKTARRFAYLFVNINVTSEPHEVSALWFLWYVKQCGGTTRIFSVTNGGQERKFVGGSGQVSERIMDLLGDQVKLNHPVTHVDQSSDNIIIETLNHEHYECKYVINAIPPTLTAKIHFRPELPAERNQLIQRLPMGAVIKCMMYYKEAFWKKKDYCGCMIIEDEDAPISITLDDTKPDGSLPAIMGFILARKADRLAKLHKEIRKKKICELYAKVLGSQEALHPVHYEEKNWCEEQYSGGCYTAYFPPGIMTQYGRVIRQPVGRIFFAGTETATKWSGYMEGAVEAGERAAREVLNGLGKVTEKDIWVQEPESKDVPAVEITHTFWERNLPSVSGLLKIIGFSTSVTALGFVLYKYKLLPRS
The experiment in a line: Inhibition of hMAO-A (fluorimetric detection of 4-hydroxyquinoline). It is filed as biochemical. The conditions noted are these: ni = no inhibition. The method, then:
as §1, §2

The target in another data set is T3, hMAO-B (Homo sapiens, UniProt P27338).
T3 construct: purchased Sigma Aldrich
T3 sequence (P27338 1-520): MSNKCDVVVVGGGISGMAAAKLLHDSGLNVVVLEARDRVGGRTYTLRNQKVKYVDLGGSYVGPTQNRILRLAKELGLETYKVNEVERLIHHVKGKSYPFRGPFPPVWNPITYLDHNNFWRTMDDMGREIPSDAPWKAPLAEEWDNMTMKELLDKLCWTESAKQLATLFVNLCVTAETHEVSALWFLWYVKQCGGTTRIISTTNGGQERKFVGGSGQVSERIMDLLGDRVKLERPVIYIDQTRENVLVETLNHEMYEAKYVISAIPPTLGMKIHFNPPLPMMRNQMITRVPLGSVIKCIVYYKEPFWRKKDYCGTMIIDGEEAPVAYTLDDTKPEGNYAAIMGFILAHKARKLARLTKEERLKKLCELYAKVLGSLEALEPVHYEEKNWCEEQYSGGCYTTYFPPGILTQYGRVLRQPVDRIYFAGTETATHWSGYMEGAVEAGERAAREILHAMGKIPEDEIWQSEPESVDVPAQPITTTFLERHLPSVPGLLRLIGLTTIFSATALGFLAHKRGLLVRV
The experiment in a line: Inhibition of hMAO-B (fluorimetric detection of 4-hydroxyquinoline). The format is biochemical. The conditions noted are these: ni = no inhibition. The method, then:
as §1, §2

For the next data set, the target named is T4, hAChE (Homo sapiens, UniProt P22303).
T4 construct: purchased Sigma Aldrich
T4 sequence (P22303 32-614): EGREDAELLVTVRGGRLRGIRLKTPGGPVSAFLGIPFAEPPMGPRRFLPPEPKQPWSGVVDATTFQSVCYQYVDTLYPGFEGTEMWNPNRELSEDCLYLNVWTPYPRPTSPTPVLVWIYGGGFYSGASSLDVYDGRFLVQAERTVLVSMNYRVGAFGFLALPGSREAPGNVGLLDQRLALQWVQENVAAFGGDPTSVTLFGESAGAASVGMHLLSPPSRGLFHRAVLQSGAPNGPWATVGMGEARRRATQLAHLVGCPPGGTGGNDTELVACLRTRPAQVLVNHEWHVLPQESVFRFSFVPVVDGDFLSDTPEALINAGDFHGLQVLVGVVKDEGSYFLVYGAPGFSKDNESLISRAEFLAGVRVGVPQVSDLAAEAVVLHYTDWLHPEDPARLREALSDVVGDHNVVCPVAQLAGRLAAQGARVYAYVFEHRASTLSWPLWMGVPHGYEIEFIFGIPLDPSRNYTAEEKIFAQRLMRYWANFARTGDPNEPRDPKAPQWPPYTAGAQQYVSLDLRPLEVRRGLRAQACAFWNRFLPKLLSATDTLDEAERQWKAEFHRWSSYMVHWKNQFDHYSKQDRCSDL
Briefly: Inhibition of hAChE (Ellman spectrophotometric assay). It is filed as biochemical. The conditions noted are these: for hAChE % @ 10 µM: inhibition at 10 µM; for IC50: seven concentrations 30–0.01 µM. The procedure: as §1, §2

Data set [1] can be described thus: Metal chelation, UV-Vis absorption assay, Ca2+. It is filed as physicochemical. The conditions noted are these: 30 µM compound, equimolar CaCl2, 30 min, pH 7.4. The method, then: (§3) Another therapeutic possibility currently under investigation is metal chelation, which could affect not only the redox cycling of metal ions but also Aβ- and tau-pathology. Metal chelation of compound 4 was investigated using a UV-Vis absorption assay, in which the compound was incubated with equimolar concentrations of the major bivalent biometals (i.e., Ca^2+, Mg^2+, Zn^2+, Cu^2+, Fe^2+, Mn^2+, Co^2+, and Ni^2+) (Figure 4).
(§4) Metal chelation was determined in assay buffer (20 mM Na-HEPES, 150 mM NaCl, pH 7.4) according to the procedure described previously. Stock solutions of the metals at 100 mM concentrations were prepared in MilliQ water (Milli-Q advantage A10 Ultrapure Water Purification System, Millipore, KGaA, Darmstadt, Germany). The FeCl2 stock solution (100 mM) was prepared in the presence of ascorbic acid (1 mM). Compound 4 at a concentration of 30 μM was incubated for 30 min with equimolar concentrations of CuCl2, ZnCl2, MgCl2, CaCl2, MnCl2, FeCl2, CoCl2, and NiCl2. Absorbance spectra were measured on a Synergy™ H4 reader (BioTek Instruments, Inc., Winooski, VT, USA).

The nature of data set [2]: Metal chelation, UV-Vis absorption assay, Cu2+. The conditions noted are these: 30 µM compound, equimolar CuCl2, 30 min, pH 7.4. The format is physicochemical. The procedure:
as §3, §4

A short description of data set [3]: Metal chelation, UV-Vis absorption assay, Fe2+. It is filed as physicochemical. The conditions noted are these: 30 µM compound, equimolar FeCl2, 30 min, pH 7.4. The procedure:
as §3, §4

The nature of data set [4]: DPPH radical-scavenging assay. The conditions noted are these: DPPH 70 µM in MeOH, 1.5 h incubation. An excerpt: In addition, antioxidants or natural products containing polyphenols are also being investigated in clinical trials involving AD patients. Therefore, the antioxidant properties of compound 4 were investigated using the 2,2-diphenyl-1-picrylhydrazyl radical (DPPH) scavenging assay, a simple and reliable in vitro assay. […] Hydroxamic acids are considered to be potent antioxidants, and, in combination with cholinesterase inhibitory activity, could not only alleviate symptoms but also have disease-modifying effects.
Compound 4 at concentrations of 3.125–50 µM was incubated for 1.5 h with 2,2-diphenyl-1-picrylhydrazyl radical (DPPH, 70 µM) in MeOH, and absorbance was measured (λ = 517 nm) using a Synergy™ H4 reader (BioTek Instruments, Inc., Winooski, VT, USA). The experiment was performed in three technical replicates, and the blank sample (compound 4 without DPPH) was subtracted. The results are expressed as the percentage of DPPH free radicals (DPPH free radicals (%) = ((A0 − A1)/A0) × 100, where A0 is the absorbance of DPPH in MeOH and A1 is the absorbance of DPPH in the presence of compound 4).
In general terms: The DPPH test is a chemical assay of radical scavenging.

T1 sequence (P06276 29-602): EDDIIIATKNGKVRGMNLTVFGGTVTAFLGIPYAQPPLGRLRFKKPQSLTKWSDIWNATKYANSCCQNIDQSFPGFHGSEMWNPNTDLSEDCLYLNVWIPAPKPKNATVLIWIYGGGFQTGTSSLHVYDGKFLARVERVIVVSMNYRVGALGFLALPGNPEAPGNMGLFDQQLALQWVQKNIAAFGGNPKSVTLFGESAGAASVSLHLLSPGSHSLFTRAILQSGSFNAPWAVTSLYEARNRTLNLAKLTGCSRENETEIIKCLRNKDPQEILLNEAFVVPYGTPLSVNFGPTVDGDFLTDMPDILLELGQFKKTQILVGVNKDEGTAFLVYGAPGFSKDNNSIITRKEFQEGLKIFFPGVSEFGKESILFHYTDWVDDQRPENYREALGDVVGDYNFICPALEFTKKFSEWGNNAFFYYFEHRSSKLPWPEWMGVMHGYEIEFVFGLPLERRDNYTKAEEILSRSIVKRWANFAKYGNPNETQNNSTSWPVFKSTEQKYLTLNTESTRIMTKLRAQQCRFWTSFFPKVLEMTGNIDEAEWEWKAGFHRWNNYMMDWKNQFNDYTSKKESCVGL

Take `COc1cc(/C=C/C(=O)NO)ccc1OCCN1CCCCC1` [Compound 1, (E)-N-Hydroxy-3-(3-methoxy-4-(2-(piperidin-1-yl)ethoxy)phenyl)acrylamide]: the figures for the inhibition at 10 µM against hBChE, at hMAO-A and against hMAO-B were 18 ± 4%, 20 ± 5% and 26 ± 5%, respectively. Moreover, the “hAChE % @ 10 µM” value on hAChE worked out at 51 ± 2%.
Turning to `COc1cc(/C=C/C(=O)NO)ccc1OCCCN1CCCCC1` [Compound 2, (E)-N-Hydroxy-3-(3-methoxy-4-(3-(piperidin-1-yl)propoxy)phenyl)acrylamide], the “hBChE % @ 10 µM” value on hBChE is given as “ni”. In addition, the inhibition at 10 µM came to 15 ± 5% against hMAO-A and 21 ± 4% against hMAO-B. The “hAChE % @ 10 µM” value at hAChE is recorded as 42 ± 2%.
On to `COc1cc(/C=C/C(=O)NO)ccc1OCCCCN1CCCCC1` [Compound 3, (E)-N-Hydroxy-3-(3-methoxy-4-(4-(piperidin-1-yl)butoxy)phenyl)acrylamide], for which, on hBChE, the “hBChE % @ 10 µM” value is “ni”. For the same molecule, the inhibition at 10 µM was 5 ± 3% against hMAO-A and 11 ± 4% against hMAO-B. The molecule also returned an IC50 at hAChE of 6.58 ± 0.27 µM.
As for `C#CCN(O)C(=O)/C=C/c1ccc(OCCN2CCCCC2)c(OC)c1` [Compound 4, (E)-N-Hydroxy-3-(3-methoxy-4-(2-(piperidin-1-yl)ethoxy)phenyl)-N-(prop-2-yn-1-yl)acrylamide], the inhibition at 10 µM stood at 38 ± 2% at hBChE, 26 ± 5% on hMAO-A and 20 ± 4% against hMAO-B. The “Ca^2+ chelation (spectral change)” value in data set [1] is on record as “does not appear to be due to the formation of a Ca^2+/4 complex”. For the same molecule, the “Cu^2+ chelation (spectral change)” value in data set [2] is “efficiently bound Cu^2+ ions; also recorded: chelated divalent copper ions”. For the same molecule, in data set [3], the “Fe^2+ chelation (spectral change)” value is given as “ferrous ions were also bound”. The same molecule returned an IC50 against hAChE of 2.63 ± 0.57 µM. In addition, the EC50 in data set [4] turned out to be 40.9 ± 0.5 µM.
Consider `C#CCN(O)C(=O)/C=C/c1ccc(OCCCN2CCCCC2)c(OC)c1` [Compound 5, (E)-N-Hydroxy-3-(3-methoxy-4-(3-(piperidin-1-yl)propoxy)phenyl)-N-(prop-2-yn-1-yl)acrylamide], for which the “hBChE % @ 10 µM” value at hBChE was “ni”. Further, the inhibition at 10 µM against hMAO-A worked out at 23 ± 6%; against hMAO-B, 16 ± 5%. In addition, the “hAChE % @ 10 µM” value on hAChE was determined as 41 ± 4%.
Regarding `C#CCN(O)C(=O)/C=C/c1ccc(OCCCCN2CCCCC2)c(OC)c1` [Compound 6, (E)-N-Hydroxy-3-(3-methoxy-4-(4-(piperidin-1-yl)butoxy)phenyl)-N-(prop-2-yn-1-yl)acrylamide], at hBChE, the “hBChE % @ 10 µM” value is recorded as “ni”. Besides, the “hMAO-A % @ 10 µM” value at hMAO-A (inhibition at 10 µM) is “ni”. For the same molecule, on hMAO-B (inhibition at 10 µM), the “hMAO-B % @ 10 µM” value was “ni”. The molecule further came in with an IC50 on hAChE of 7.2 ± 0.54 µM.
As to `O=C(NO)c1ccccc1` [Compound 15, N-Hydroxybenzamide], the “hBChE % @ 10 µM” value on hBChE was “ni”. Also, the inhibition at 10 µM on hMAO-A was found to be 11 ± 3%; against hMAO-B, 16 ± 3%. The “hAChE % @ 10 µM” value at hAChE worked out at 58 ± 5%.
For `C#CCN(O)C(=O)c1ccccc1` [Compound 16, N-Hydroxy-N-(prop-2-yn-1-yl)benzamide], the “hBChE % @ 10 µM” value on hBChE is recorded as “ni”. The inhibition at 10 µM against hMAO-A was 14 ± 4%; against hMAO-B, 16 ± 5%. On hAChE, the “hAChE % @ 10 µM” value amounted to 40 ± 4%.
In the case of `Cc1c(C)c2c(c(C)c1O)CCC(C)(C(=O)O)O2` (stereo not shown) [Trolox, reference compound], the EC50 in data set [4] stood at 12.4 ± 0.3 µM.
